# Values of other authors as cited in EP0279778B1, “New strain belonging to genus Thermus, new beta-galactosidase and process for producing same” (Research Development Corporation of Japan, priority 1987, dated 1988).
# Assays:
# [1] = system: Thermus strain 4-1A β-galactosidase (Enzyme of Precedent 3); conditions: 56mM
# [2] = system: Bacillus stearothermophilus β-galactosidase (Enzyme of Precedent 5); conditions: 10mM
SMILES,Inhibition by reaction product [1] [%],Inhibition by reaction product [2] [%]
OC[C@H]1OC(O)[C@H](O)[C@@H](O)[C@H]1O (stereo partly shown) [galactose],52,71
OC[C@H]1OC(O)[C@H](O)[C@@H](O)[C@@H]1O (stereo partly shown) [glucose],63,20
